Key:
IBC02 = assay: WST cell proliferation assay, IBC02 cells; assay type: cell-based
IBC03 = assay: WST cell proliferation assay, IBC03 cells; assay type: cell-based
KPL4 = assay: WST cell proliferation assay, KPL4 cells; assay type: cell-based
SUM149 = assay: WST cell proliferation assay, SUM149 cells; assay type: cell-based
SUM190 = assay: WST cell proliferation assay, SUM190 cells; assay type: cell-based
[1] = cited from earlier work; for peak serum concentrations achieved in different clinical trials: human, in vivo; for Cmax: peak serum concentration, clinical trials, read-out: Phase I-II Cmax
HDAC1 = HDAC1 (Homo sapiens, UniProt Q13547); conditions: previously shown [37]; cited from earlier work
Sequence of HDAC1 (Q13547 whole entry): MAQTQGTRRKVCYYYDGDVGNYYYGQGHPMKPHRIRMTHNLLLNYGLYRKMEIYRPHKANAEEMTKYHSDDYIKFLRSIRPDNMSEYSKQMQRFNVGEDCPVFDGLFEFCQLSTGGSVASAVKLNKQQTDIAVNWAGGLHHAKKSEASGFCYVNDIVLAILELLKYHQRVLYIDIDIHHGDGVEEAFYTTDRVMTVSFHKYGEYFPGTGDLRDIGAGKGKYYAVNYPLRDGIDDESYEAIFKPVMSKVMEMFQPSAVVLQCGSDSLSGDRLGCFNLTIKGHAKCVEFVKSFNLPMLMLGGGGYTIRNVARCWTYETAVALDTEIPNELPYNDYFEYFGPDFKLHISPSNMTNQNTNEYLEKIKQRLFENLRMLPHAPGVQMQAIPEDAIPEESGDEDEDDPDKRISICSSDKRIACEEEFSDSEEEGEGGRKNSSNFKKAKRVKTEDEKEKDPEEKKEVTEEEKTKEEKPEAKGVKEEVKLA

[2] = at clinically recommended doses; cited from earlier work
MFM223 = assay: WST cell proliferation assay, MFM223 cells; conditions: 100 nM, 7 days
Description: (§1) The inhibition of cell proliferation by E, N, T and ENT is measured by WST assay.

HCC1913 = assay: WST cell proliferation assay, HCC1913 cells; conditions: 100 nM, 7 days
Description: as §1

[3] = single drug 1000 nM, Belinostat panel
[4] = single drug 500 nM, Belinostat panel
[5] = single drug 100 nM, Entinostat panel (upper part of Table 6)
[6] = single drug 150 nM, Entinostat panel
[7] = single drug 100 nM, Belinostat panel
[8] = single drug 200 nM, Belinostat panel
[9] = single drug 200 nM, Entinostat panel

O=C(/C=C/c1cccc(S(=O)(=O)Nc2ccccc2)c1)NO [Belinostat]
Survival of inflammatory breast cancer cells (percent viability vs DMSO) (IBC02; single drug 500 nM, Belinostat panel (lower part of Table 6)): 14 | Survival of inflammatory breast cancer cells (percent viability vs DMSO) (IBC02; [3]): 0 | Survival of inflammatory breast cancer cells (percent viability vs DMSO) (IBC03; [4]): 91 | Survival of inflammatory breast cancer cells (percent viability vs DMSO) (IBC03; [3]): 45 | Survival of inflammatory breast cancer cells (percent viability vs DMSO) (KPL4; [4]): 91 | Survival of inflammatory breast cancer cells (percent viability vs DMSO) (KPL4; [3]): 23 | Survival of inflammatory breast cancer cells (percent viability vs DMSO) (SUM149; [4]): 71 | Survival of inflammatory breast cancer cells (percent viability vs DMSO) (SUM149; [3]): 21 | Survival of inflammatory breast cancer cells (percent viability vs DMSO) (SUM190; [4]): 95 | Survival of inflammatory breast cancer cells (percent viability vs DMSO) (SUM190; [3]): 107 | peak serum concentrations achieved in different clinical trials [1]: 200 µM | Cmax [1]: 200 µM

Nc1ccccc1NC(=O)c1ccc(CNC(=O)OCc2cccnc2)cc1 [Entinostat]
Survival of inflammatory breast cancer cells (percent viability vs DMSO) (IBC02; [5]): 21 | Survival of inflammatory breast cancer cells (percent viability vs DMSO) (IBC02; [6]): 12 | Survival of inflammatory breast cancer cells (percent viability vs DMSO) (IBC03; [5]): 61 | Survival of inflammatory breast cancer cells (percent viability vs DMSO) (IBC03; [6]): 35 | Survival of inflammatory breast cancer cells (percent viability vs DMSO) (KPL4; [5]): 45 | Survival of inflammatory breast cancer cells (percent viability vs DMSO) (KPL4; [6]): 20 | Survival of inflammatory breast cancer cells (percent viability vs DMSO) (SUM149; [5]): 99 | Survival of inflammatory breast cancer cells (percent viability vs DMSO) (SUM149; [6]): 102 | Survival of inflammatory breast cancer cells (percent viability vs DMSO) (SUM190; [5]): 159 | Survival of inflammatory breast cancer cells (percent viability vs DMSO) (SUM190; [6]): 223 | inhibition of HDAC1 (HDAC1): inhibits

O=C(Nc1ccc([N+](=O)[O-])cc1Cl)c1cc(Cl)ccc1O [Niclosamide]
Survival of inflammatory breast cancer cells (percent viability vs DMSO) (IBC02; [7]): 17 | Survival of inflammatory breast cancer cells (percent viability vs DMSO) (IBC02; [5]): 20 | Survival of inflammatory breast cancer cells (percent viability vs DMSO) (IBC03; [7]): 35 | Survival of inflammatory breast cancer cells (percent viability vs DMSO) (IBC03; [5]): 46 | Survival of inflammatory breast cancer cells (percent viability vs DMSO) (KPL4; [7]): 104 | Survival of inflammatory breast cancer cells (percent viability vs DMSO) (KPL4; [5]): 91 | Survival of inflammatory breast cancer cells (percent viability vs DMSO) (SUM149; [7]): 74 | Survival of inflammatory breast cancer cells (percent viability vs DMSO) (SUM149; [5]): 113 | Survival of inflammatory breast cancer cells (percent viability vs DMSO) (SUM190; [7]): 133 | Survival of inflammatory breast cancer cells (percent viability vs DMSO) (SUM190; [5]): 135 | peak serum concentrations achieved in different clinical trials [1]: 2 µM | Cmax [1]: 2 µM | side effects [2]: itching, drowsiness, dizziness, and skin rash | sensitivity of cell line (FIG. 2) (MFM223): exceptional sensitivity | sensitivity of cell line (FIG. 2) (HCC1913): exceptional sensitivity

CCc1cc(C(N)=O)ccc1-n1nc(C(C)C)c2c(-n3cnc(-c4cnn(C)c4)c3)ccnc21 [Pimitespib]
Survival of inflammatory breast cancer cells (percent viability vs DMSO) (IBC02; [7]): 114 | Survival of inflammatory breast cancer cells (percent viability vs DMSO) (IBC02; [5]): 107 | Survival of inflammatory breast cancer cells (percent viability vs DMSO) (IBC02; [8]): 105 | Survival of inflammatory breast cancer cells (percent viability vs DMSO) (IBC02; [9]): 114 | Survival of inflammatory breast cancer cells (percent viability vs DMSO) (IBC03; [7]): 89 | Survival of inflammatory breast cancer cells (percent viability vs DMSO) (IBC03; [5]): 89 | Survival of inflammatory breast cancer cells (percent viability vs DMSO) (IBC03; [8]): 81 | Survival of inflammatory breast cancer cells (percent viability vs DMSO) (IBC03; [9]): 81 | Survival of inflammatory breast cancer cells (percent viability vs DMSO) (KPL4; [7]): 102 | Survival of inflammatory breast cancer cells (percent viability vs DMSO) (KPL4; [5]): 89 | Survival of inflammatory breast cancer cells (percent viability vs DMSO) (KPL4; [8]): 136 | Survival of inflammatory breast cancer cells (percent viability vs DMSO) (KPL4; [9]): 118 | Survival of inflammatory breast cancer cells (percent viability vs DMSO) (SUM149; [7]): 111 | Survival of inflammatory breast cancer cells (percent viability vs DMSO) (SUM149; [5]): 115 | Survival of inflammatory breast cancer cells (percent viability vs DMSO) (SUM149; [8]): 158 | Survival of inflammatory breast cancer cells (percent viability vs DMSO) (SUM149; [9]): 172 | Survival of inflammatory breast cancer cells (percent viability vs DMSO) (SUM190; [7]): 112 | Survival of inflammatory breast cancer cells (percent viability vs DMSO) (SUM190; [5]): 114 | Survival of inflammatory breast cancer cells (percent viability vs DMSO) (SUM190; [8]): 100 | Survival of inflammatory breast cancer cells (percent viability vs DMSO) (SUM190; [9]): 102 | peak serum concentrations achieved in different clinical trials [1]: 7 µM | Cmax [1]: 7 µM | side effects [2]: diarrhea, decreased appetite, malaise, renal impairment, and anemia

O=C(CCCCCCC(=O)Nc1ccccc1)NO [Vorinostat]
Cmax [1]: 40 µM
